Results on 12 compounds are retold here after ChEMBL document CHEMBL1201862, “PubChem BioAssay data set” (2004).

Some test systems named below: 786-0; BT-549; COLO 205; EKVX; HOP-62; HOP-92; HT-29; K562; KM12; LOX IMVI; MOLT-4; NCI-H460; NCI-H522; NCI/ADR-RES; OVCAR-4; SK-MEL-2; UO-31; HCC 2998; HL-60; SF-539.
What all share (assay): growth of human tumour cells (NCI), 48 h

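These data come from cells grown in 96-well plates and exposed to compound for 48 hours at five concentrations. GI50 is the concentration that inhibits growth by half.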 Calls of active or inactive are those of the source. Rule as the data show it: active = GI50 up to about 1.1 µM and inactive = higher.

Regarding `O=[As](O)(O)c1ccc(NCc2ccccc2)cc1`, the GI50 with 786-0, in the test on BT-549, in the test with COLO 205, with EKVX, in the test with HOP-62 and in the test with HOP-92 was > 100 µM (inactive) in each case. Further, the GI50 in the test with HT-29, in the test on K562, in the test on KM12, in the test with LOX IMVI, in the test on MOLT-4 and with NCI-H460 was > 100 µM (inactive) each time. Moreover, the GI50 in the test with NCI-H522 was 76.9 µM (inactive); with NCI/ADR-RES, > 100 µM (inactive); in the test with OVCAR-4 it was > 100 µM (inactive); in the test on SK-MEL-2, > 100 µM (inactive); in the test with UO-31, > 100 µM (inactive).
For the compound `Cc1cc(C)c2c(c1)C/C(=C\c1ccccc1C(=O)O)C2=O`, the GI50 in the test with 786-0 was > 100 µM (inactive); with BT-549 it was 29.9 µM (inactive); in the test on EKVX, 82.6 µM (inactive); in the test on HCC 2998 it was 33.5 µM (inactive); with HL-60, > 100 µM (inactive); with HOP-62, > 100 µM (inactive). The GI50 in the test with HOP-92 is 81.8 µM (inactive); in the test on HT-29, > 100 µM (inactive); in the test on K562, > 100 µM (inactive); in the test with KM12 it was > 100 µM (inactive); with LOX IMVI, > 100 µM (inactive); in the test with MOLT-4, 76.4 µM (inactive). For the same compound, the GI50 in the test on NCI-H460 is 11.7 µM (inactive); with NCI-H522, 66.2 µM (inactive); with OVCAR-4, > 100 µM (inactive); in the test on SF-539, 39.4 µM (inactive); with UO-31 it was 73.3 µM (inactive).
Take `CC1(C)CC(=O)C2=C(C1)OC1=C(CC(C)(C)CC1=O)C2c1ccccc1Cl` (stereo unspecified): the GI50 was > 100 µM (inactive) with 786-0; > 100 µM (inactive) with COLO 205; > 100 µM (inactive) in the test with EKVX; > 100 µM (inactive) with HCC 2998; > 100 µM (inactive) with HL-60; 59.2 µM (inactive) in the test on HOP-62. Further, the GI50 in the test on HOP-92, with HT-29, in the test on K562, with LOX IMVI, with MOLT-4 and in the test on NCI-H460 was > 100 µM (inactive) in each case. Moreover, the GI50 in the test with NCI-H522 is > 100 µM (inactive); in the test with NCI/ADR-RES it was > 100 µM (inactive); with OVCAR-4 it was > 100 µM (inactive); in the test with SF-539, 70.5 µM (inactive); in the test with SK-MEL-2, > 100 µM (inactive); with UO-31, 1.94 µM (inactive).
For `O=C1CC2C=CC(O)C(C1)C2` (stereo unspecified), the GI50 with 786-0, in the test on COLO 205, in the test with HCC 2998, with HL-60, in the test on HOP-62 and in the test on HT-29 was > 100 µM (inactive) throughout. The GI50 in the test with K562, in the test on KM12, with LOX IMVI, in the test on MOLT-4, with NCI-H460 and in the test on NCI-H522 was > 100 µM (inactive) throughout. For the same compound, the GI50 in the test on NCI/ADR-RES, with OVCAR-4, with SF-539, with SK-MEL-2 and in the test on UO-31 was > 100 µM (inactive) each time.
On to `O=C1c2c(O)cccc2C(C(=O)CCCC(=O)C2c3cccc(O)c3C(=O)c3c(O)cccc32)c2cccc(O)c21`, for which the GI50 in the test with 786-0 was 2.73 µM (inactive); in the test on BT-549, 0.524 µM (active); in the test on COLO 205, 0.34 µM (active); in the test with EKVX, 0.608 µM (active); in the test on HCC 2998, 0.278 µM (active); in the test on HL-60, 0.0824 µM (active). Moreover, the GI50 was 0.612 µM (active) with HOP-62; 0.217 µM (active) in the test with HOP-92; 0.746 µM (active) with HT-29; 0.11 µM (active) in the test on K562; 0.242 µM (active) in the test with KM12; 0.194 µM (active) with LOX IMVI. The GI50 in the test on MOLT-4 was 0.966 µM (active); in the test with NCI-H460 it was 0.0803 µM (active); in the test on NCI-H522, 0.158 µM (active); in the test on OVCAR-4, 0.0867 µM (active); in the test with SF-539 it was 0.179 µM (active); in the test with SK-MEL-2 it was 0.322 µM (active). For the same compound, the GI50 in the test on UO-31 is 0.417 µM (active).
Regarding `CN1CCN(C(=S)N(C(=O)c2cccs2)C2CCCCC2)CC1`, the GI50 is > 100 µM (inactive) in the test with 786-0; > 100 µM (inactive) in the test with BT-549; > 100 µM (inactive) in the test on COLO 205; > 100 µM (inactive) in the test with HCC 2998; 24.8 µM (inactive) in the test with HL-60; > 100 µM (inactive) in the test on HOP-92. Moreover, the GI50 in the test with HT-29 is > 100 µM (inactive); with K562, > 100 µM (inactive); in the test on KM12 it was > 100 µM (inactive); in the test with LOX IMVI it was > 100 µM (inactive); in the test on MOLT-4, > 10 µM (inactive); in the test on NCI-H460, > 100 µM (inactive). The GI50 with NCI-H522, in the test on OVCAR-4, in the test on SK-MEL-2 and in the test on UO-31 was > 100 µM (inactive) in each case.
For `COP(=O)(Cc1ccc(/C=C/C#N)o1)OC`, the GI50 in the test with 786-0, with COLO 205, in the test with EKVX, with HL-60, in the test with HOP-62 and in the test with HOP-92 was > 100 µM (inactive) in each case. In addition, the GI50 in the test with HT-29, with K562, with KM12, with MOLT-4, in the test with NCI-H460 and in the test on NCI-H522 was > 100 µM (inactive) in each case. Further, the GI50 with NCI/ADR-RES, in the test on OVCAR-4 and in the test on SF-539 was > 100 µM (inactive) each time.
Regarding `CCN(CC)P(=O)(c1ccc2c(c1)OCCOCCOCCOCCO2)N(CC)CC`, the GI50 in the test with 786-0, in the test with BT-549, in the test with COLO 205, with EKVX, in the test on HCC 2998 and in the test on HL-60 was > 100 µM (inactive) each time. Further, the GI50 in the test on HOP-62, in the test with K562, in the test with KM12, in the test on LOX IMVI, in the test on MOLT-4 and with NCI-H460 was > 100 µM (inactive) in each case. In addition, the GI50 in the test with NCI-H522, with SF-539 and in the test with UO-31 was > 100 µM (inactive) throughout.
Regarding `[N-]=[N+]=NC1=C(C(=O)c2ccccc2)C(=O)c2cccc3cccc1c23`, the GI50 in the test with 786-0 is 25.3 µM (inactive); in the test on BT-549 it was 44.8 µM (inactive); in the test on COLO 205, > 100 µM (inactive); in the test with EKVX, 19.1 µM (inactive); in the test on HOP-62, 17.1 µM (inactive); in the test with HOP-92, 28.4 µM (inactive). For the same compound, the GI50 was 51.2 µM (inactive) in the test on HT-29; 54.5 µM (inactive) in the test with K562; 25.1 µM (inactive) with KM12; 23 µM (inactive) in the test on MOLT-4; 23 µM (inactive) in the test with NCI-H522; 67.3 µM (inactive) in the test on NCI/ADR-RES. Further, the GI50 was 39.5 µM (inactive) in the test on OVCAR-4, 49.3 µM (inactive) in the test with SF-539, 21.8 µM (inactive) in the test with SK-MEL-2 and 26.2 µM (inactive) in the test on UO-31.
With `Cc1cc2nc3c(N)nn(CCCN(C)C)c3nc2cc1C`, the GI50 in the test with 786-0 was 68.9 µM (inactive); with BT-549, > 100 µM (inactive); with COLO 205 it was 55 µM (inactive); in the test on EKVX it was > 100 µM (inactive); in the test with HCC 2998 it was 41.3 µM (inactive); in the test on HOP-62 it was > 100 µM (inactive). The GI50 with HT-29 was 38.3 µM (inactive); with KM12 it was 93.8 µM (inactive); with NCI-H460, 80.5 µM (inactive); in the test on NCI/ADR-RES, 59.7 µM (inactive); in the test on OVCAR-4, > 100 µM (inactive); with SF-539 it was > 100 µM (inactive). In addition, the GI50 in the test with UO-31 was 46.6 µM (inactive).
Take `CC1=C/C(=N\OCC(=O)O)CC(c2ccc(C(C)C)cc2)C1` (stereo unspecified): the GI50 in the test with 786-0 was 65.8 µM (inactive); in the test with COLO 205 it was 76.7 µM (inactive); in the test with EKVX, > 100 µM (inactive); with HL-60, 26.5 µM (inactive); with HOP-92 it was 29.5 µM (inactive); with HT-29, 16.6 µM (inactive). In addition, the GI50 in the test with K562 was 32.3 µM (inactive); with KM12, 48.5 µM (inactive); with MOLT-4, 16.3 µM (inactive); with NCI-H460 it was 42.2 µM (inactive); in the test with NCI-H522 it was 23.2 µM (inactive); in the test on NCI/ADR-RES it was 21.1 µM (inactive). Moreover, the GI50 in the test with SF-539 is 93.1 µM (inactive); in the test with SK-MEL-2 it was 99.1 µM (inactive).
Consider `CC(C)=CCC/C(C)=C/CC/C(C)=C/CC/C(C)=C/CC/C(C)=C/CC/C(C)=C/CC/C(C)=C/CC/C(C)=C/CC/C(C)=C/CO` [SOLANESOL], for which the GI50 was > 100 µM (inactive) in the test with 786-0; > 100 µM (inactive) in the test on BT-549; > 100 µM (inactive) in the test with COLO 205; > 100 µM (inactive) in the test with EKVX; > 100 µM (inactive) in the test on HCC 2998; 77.4 µM (inactive) with HL-60. For the same compound, the GI50 in the test on HOP-62, in the test on HOP-92, in the test on HT-29, in the test on K562, in the test on KM12 and in the test on LOX IMVI was > 100 µM (inactive) each time. Further, the GI50 with MOLT-4, with NCI-H460, in the test with NCI-H522, in the test with OVCAR-4, in the test with SF-539 and in the test with SK-MEL-2 was > 100 µM (inactive) each time. For the same compound, the GI50 with UO-31 is > 100 µM (inactive).
